Results as given in patent publication US4863951A, “Pharmacologically active amino-5,6,7,8-tetrahydronaphtho [2,3-B] furan compounds” (ADIR Et Cie, priority 1987, dated 1989).
Counter-ions that a name gives are not always drawn.

Legend:
[1] = tested on: isolation-induced aggression; assay: Antiaggressive effects: isolation-induced aggression in mice; format: in vivo; details: isolated mice, i.p.
Excerpt: (§1) The antiaggressive effects of the compounds of the invention were investigated by two methods, one of them testing for an inhibition of aggressive behavior in peviously isolated mice (Yen C. Y., Stanger A. L., and Millman N, Arch. Int. Pharmacodyn. Therap. (1959), 123, p. 179-185), and the other in isolated and bulbectomized rats (Garattini S. and Sigg E. B. "Aggressive Behaviour" p. 47-55 Ed. Excerpta Medica Found., Amsterdam, 1969).
(§2) (Tables IX and X, s=significant, p<0.05).

[2] = tested on: aggression of isolated, bulbectomized rats; assay: Antiaggressive effects: aggression of isolated, bulbectomized rats; format: in vivo; details: i.p.
Excerpt: as §1, §2

[3] = tested on: interoceptive stimulus of apomorphine; assay: Drug discrimination in rats (generalization with apomorphine); format: in vivo; details: 2.5 mg.kg^-1 i.p., 30 minutes before test, hydrochloride
Experimental: Rats were trained to discriminate between the effect of the interoceptive stimulus of apomorphine (0.2 mg.kg^-1 i.p.) and that of physiological saline, according to a principle described by Colpaert F. in "Drug discrimination application in C.N.S. Pharmacology" Ed. Elsevier Biomedical 1982, Amsterdam. […]
Under the experimental conditions employed, the behavior shown by the animals coincides with that noted in the case of administration of apomorphine.

[4] = tested on: apomorphine-induced hypothermia; assay: Antagonism with respect to apomorphine-induced hypothermia in mice; format: in vivo; details: apomorphine 1 mg.kg^-1 s.c., after 2 hours; for % antagonism of hypothermia: mice, hydrochloride; for change in vivo at 2.5 mg/kg / change in vivo at 5 mg/kg / change in vivo at 10 mg/kg / change in vivo at 20 mg/kg: Mus musculus, ip, 2 h; for change in vivo at 2.5 mg/kg: read-out: % antagonism of hypothermia, mice, i.p. dose 2.5; for change in vivo at 5 mg/kg: read-out: % antagonism of hypothermia, mice, i.p. dose 5; for change in vivo at 10 mg/kg: read-out: % antagonism of hypothermia, mice, i.p. dose 10; for change in vivo at 20 mg/kg: read-out: % antagonism of hypothermia, mice, i.p. dose 20
Experimental: Testing for an antagonism with respect to apomorphine-induced hypothermia in mice was performed according to the method described by CHERMAT R. and PONCELET M. in J. Pharmac. (1983), 14, No. 1, p. 93-97. The dose of apomorphine administered subcutaneously was 1 mg.kg^-1. Tables VII and VIII show the percentage antagonism of the hypothermia observed after 2 hours.

[5] = tested on: apomorphine-induced rearing-up; assay: Antagonism of apomorphine-induced rearing-up behavior in mice; format: in vivo; details: apomorphine 0.75 mg.kg^-1 s.c.; for % inhibition of rearing-up: mice, hydrochloride; for change in vivo at 2.5 mg/kg / change in vivo at 5 mg/kg / change in vivo at 10 mg/kg / change in vivo at 20 mg/kg: Mus musculus, ip; for change in vivo at 2.5 mg/kg: read-out: % inhibition of rearing-up, mice, i.p. dose 2.5 mg.kg^-1; for change in vivo at 5 mg/kg: read-out: % inhibition of rearing-up, mice, i.p. dose 5 mg.kg^-1; for change in vivo at 10 mg/kg: read-out: % inhibition of rearing-up, mice, i.p. dose 10 mg.kg^-1; for change in vivo at 20 mg/kg: read-out: % inhibition of rearing-up, mice, i.p. dose 20 mg.kg^-1
Experimental: Studied in the test of antagonism of apomorphine-induced rearing-up following the subcutaneous administration of a dose of 0.75 mg.kg^-1 of this substance in mice, the compounds of general formula I act in a clear-cut manner at doses greater than or equal to 2.5 mg.kg^-1 (i.p.). The same results are observed when the compounds of general formula I are administered orally at a dose of 20 mg.kg^-1. The activity of the compounds was assessed according to the method described by Protais P, Costentin J and Schwartz J. C. in Psychopharmacology (1976), 50, p. 1-6.
(s=significant difference, p<0.05).

[6] = tested on: ponto-geniculo-occipital (P.G.O.) waves induced by Ro4-1284; assay: Antagonism of the ponto-geniculo-occipital (P.G.O.) waves induced by Ro4-1284; format: in vivo; details: Felis catus, iv, cats, i.v., read-out: ED50 (effective dose inhibiting by 50% the number of P.G.O. waves)
Experimental: (§3) The antidepressant effects of the compounds of the invention were investigated by assessing the antagonism of reserpine-induced hypothermia and the antagonism of the ponto-geniculo-occipital waves induced by the compound Ro4-1284 in cats.
This study was performed according to the method of Ruch-Monachon M. A., Jalfre M. and Haefely W. described in Arch. Int. Pharm. Therap., (1976), 219, No. 2, p. 251-346, and it enabled the effective dose (i.v) inhibiting by 50% (ED50) the number of P.G.O waves to be assessed.

[7] = tested on: apomorphine-induced stereotypy; assay: Antagonism of apomorphine-induced stereotypy in rats; format: in vivo; details: apomorphine 1.5 mg.kg^-1 i.p., 30 minutes; for change in vivo at 10 mg/kg: read-out: % ISS (inhibition (-) or potentiation (+) of the stereotypy score), rats, i.p. dose 10 mg.kg^-1; for % ISS (inhibition (-) or potentiation (+) of the stereotypy score): rats, hydrochloride
Experimental: The inhibitory activity of the compounds of the invention with respect to apomorphine- or amphetamine-induced stereotypy in rats was assessed using the scale of scoring of stereotyped movements described by Quinton R. M. and Halliwell G. in Nature (1963), 200, p. 178-179.
Apomorphine or amphetamine was administered to the animals intraperitoneally at a dose of 1.5 mg.kg^-1. The percentage inhibition (-) or potentiation (+) of the stereotypy score (% ISS) shown in Tables IV and V for apomorphine corresponds to a measurement time of 30 minutes. In contrast, the percentage inhibition of the stereotypy score shown in Table VI for amphetamine corresponds to a measurement time of 3 hours. […]

[8] = tested on: reserpine-induced hypothermia; assay: Antagonism of reserpine-induced hypothermia; format: in vivo, Swiss CD male mice; details: mice, reserpine 2.5 mg.kg^-1 i.p.
Experimental: as §3
The study is carried out on Swiss CD male mice (27-28 g). After distribution into groups of 10 animals each, reserpine is injected intraperitoneally at a dose of 2.5 mg.kg^-1. Three hours later, the compounds undergoing trial are administered intraperitoneally. The rectal temperature of the animals is measured one hour and two hours after the second treatment, and compared with the initial temperature To of these same animals, measured immediately before the administration of the compounds undergoing trial.

[9] = 10 mg.kg^-1 i.p., hydrochloride
[10] = 20 mg.kg^-1 i.p., hydrochloride

SMILES	% of pairs of mice showing no sign of fighting ([1]; 5 mg.kg^-1, hydrochloride) [%]	% of pairs of mice showing no sign of fighting ([1]; 2.5 mg.kg^-1) [%]	% of pairs of mice showing no sign of fighting ([1]; 5 mg.kg^-1) [%]	% of pairs of mice showing no sign of fighting ([1]; 10 mg.kg^-1) [%]	ED50 [6] [mg/kg]	% of rats rendered non-aggressive ([2]; 2.5 mg.kg^-1) [%]	change in vivo at 2.5 mg/kg [4] [%]	change in vivo at 5 mg/kg [4] [%]	change in vivo at 10 mg/kg [4] [%]	change in vivo at 20 mg/kg [4] [%]	change in vivo at 2.5 mg/kg [5] [%]	change in vivo at 5 mg/kg [5] [%]	change in vivo at 10 mg/kg [5] [%]	change in vivo at 20 mg/kg [5] [%]	change in vivo at 10 mg/kg ([7]; Rattus norvegicus, ip, 0.5 h) [%]	% inhibition of hypothermia ([8]; 2.5 mg.kg^-1 i.p.) [%]	% inhibition of hypothermia ([8]; 5 mg.kg^-1 i.p.)	% inhibition of hypothermia ([8]; 10 mg.kg^-1 i.p.)	% inhibition of hypothermia ([8]; 20 mg.kg^-1 i.p.)	% inhibition of hypothermia [8, 9]	other results
NC1CCc2cc3c(cc2C1)OCC3 (stereo not drawn) [Example 4, l-7-Amino-2,3,5,6,7,8-hexahydronaphtho[2,3-b]furan hydrochloride]	44	–	–	–	–	–	–	–	–	–	–	–	–	–	–	–	–	–	–	–	% of pairs of mice showing no sign of fighting ([1]; 2.5 mg.kg^-1, hydrochloride): 22%; % of rats rendered non-aggressive ([2]; 2.5 mg.kg^-1, hydrochloride): 12%; % of animals which generalize [3]: 70%; Number of animals showing the effect of generalization with apomorphine [3]: 7/10; % antagonism of hypothermia ([4]; i.p. dose 2.5): -8%; % antagonism of hypothermia ([4]; i.p. dose 5): -3%; % antagonism of hypothermia ([4]; i.p. dose 10): -11%; % antagonism of hypothermia ([4]; i.p. dose 20): -19%; % inhibition of rearing-up ([5]; i.p. dose 10 mg.kg^-1): -24%; % inhibition of rearing-up ([5]; i.p. dose 20 mg.kg^-1): -86%
CN(C)C1CCc2cc3c(cc2C1)OCC3 (racemic) [Example 6, dl-7-(N,N-Dimethylamino)-2,3,5,6,7,8-hexahydronaphtho[2,3-b]furan hydrochloride]	–	40	44	78	0.498	30	6	-6	-25	-48	-17	-54	-94	-100	-48	-1	+1%	-24%	-20%	–	change in vivo at 20 mg/kg ([7]; Rattus norvegicus, ip, 0.5 h, read-out: % ISS (inhibition (-) or potentiation (+) of the stereotypy score), rats, i.p. dose 20 mg.kg^-1): -58%
CNC1CCc2cc3c(cc2C1)OCC3 (stereo not drawn) [Example 38, d-7-(N-Methylamino)-2,3,5,6,7,8-hexahydronaphtho[2,3-b]furan hydrochloride]	70	–	–	–	–	37	-48	-91	-112	-119	-76	-100	–	–	-54	–	–	–	–	-21%	% of rats rendered non-aggressive ([2]; 5 mg.kg^-1, hydrochloride): 75%; change in vivo at 5 mg/kg ([7]; Rattus norvegicus, ip, 0.5 h, read-out: % ISS (inhibition (-) or potentiation (+) of the stereotypy score), rats, i.p. dose 5 mg.kg^-1): -60%; % inhibition of hypothermia ([8]; 2.5 mg.kg^-1 i.p., hydrochloride): -28%; % inhibition of hypothermia ([8]; 5 mg.kg^-1 i.p., hydrochloride): -35%
CN(C)C1CCc2cc3c(cc2C1)OCC3 (stereo not drawn) [Example 41, l-7-(N,N-Dimethylamino)-2,3,5,6,7,8-hexahydronaphtho[2,3-b]furan hydrochloride]	66	–	–	–	–	–	–	–	–	–	–	–	–	–	–	–	–	–	–	+13%	% of pairs of mice showing no sign of fighting ([1]; 10 mg.kg^-1, hydrochloride): 90%; % of rats rendered non-aggressive ([2]; 10 mg.kg^-1, hydrochloride): 50%; % ISS (inhibition (-) or potentiation (+) of the stereotypy score) ([7]; i.p. dose 10 mg.kg^-1): +11%; % ISS (inhibition (-) or potentiation (+) of the stereotypy score) ([7]; i.p. dose 20 mg.kg^-1): +3%; % inhibition of hypothermia [8, 10]: +29%
CN(C)C1CCc2cc3c(cc2C1)OCC3 (stereo not drawn) [Example 40, d-7-(N,N-Dimethylamino)-2,3,5,6,7,8-hexahydronaphtho[2,3,-b]furan hydrochloride]	22	–	–	–	–	–	–	–	-44	-73	-75	-100	–	–	–	–	–	–	–	+14%	% of pairs of mice showing no sign of fighting ([1]; 10 mg.kg^-1, hydrochloride): 50%; % of rats rendered non-aggressive ([2]; 10 mg.kg^-1, hydrochloride): 42%; % ISS (inhibition (-) or potentiation (+) of the stereotypy score) ([7]; i.p. dose 10 mg.kg^-1): -61%; % ISS (inhibition (-) or potentiation (+) of the stereotypy score) ([7]; i.p. dose 20 mg.kg^-1): -67%; % inhibition of hypothermia [8, 10]: +14%
CNC1CCc2cc3c(cc2C1)OCC3 (racemic) [Example 9, dl-7-(N-Methylamino)-2,3,5,6,7,8-hexahydronaphtho[2,3-b]furan hydrochloride]	–	67	56	89	0.173	27	-39	-67	-86	-84	-46	-65	-100	-100	–	-8	+37%	+16%	+11%	–	% of rats rendered non-aggressive ([2]; 5 mg.kg^-1): 58%
